Measured values from paper PMC8733726, “Dioctanoyl Ultrashort Tetrabasic β-Peptides Sensitize Multidrug-Resistant Gram-Negative Bacteria to Novobiocin and Rifampicin” (Frontiers in Microbiology, 2021).
Values after ≈ are worked out from the molar mass of the structure shown. Read-outs that look alike come from different tables or passages of the source.

How the values were obtained:
[1] = in vivo; cited from earlier work
[2] = tested on: wild-type E. coli ATCC 25922; assay: microbe, parasite or virus in culture; format: cell-based, Escherichia coli; conditions: ATCC 25922; for MICcombo: antibiotic with dUSTBβP 3 at 8 μg/mL
In short: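 Antibiotic and adjuvant were serially diluted 2-fold against each other in MHB, inoculated at 5 × 10^5 CFU/mL and incubated at 37°C for 18 h. Growth was read as turbidity at 590 nm. FICI was the sum of each agent's combination MIC divided by its MIC alone; ≤ 0.5 counted as synergy.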

MDR E. coli = format: cell-based, Escherichia coli; conditions: 94393; antibiotic alone
Method: (§1) The adjuvant activities of dUSTBβPs were evaluated using checkerboard assay as previously described ([Berry et al., 2019]). Overnight-grown bacterial culture diluted in saline to 0.5 McFarland turbidity was successively diluted 1:50 in MHB to achieve a final concentration of 5 × 10^5 CFU/mL for inoculation. The antibiotic and adjuvant were serially diluted 2-fold along the x-axis and y-axis, respectively, resulting in varying concentrations of both agents in each well. Subsequently, the 96-well plate was incubated with equal volumes of bacterial inoculum at 37°C for 18 h. Confirmation of turbidity was done using an EMax Plus microplate reader (Molecular Devices, United States) at a wavelength of 590 nm. Wells comprising MHB alone or in the presence of bacterial cells were used as negative or positive controls, respectively. Fractional inhibitory concentration index (FICI) is determined by adding the FICs of both antibiotic and adjuvant. The FIC of the antibiotic is calculated by dividing the MIC of the antibiotic in the presence of the adjuvant by the MIC of the antibiotic alone. Similarly, the FIC of the adjuvant is calculated by dividing the MIC of the adjuvant in the presence of the antibiotic by the MIC of the adjuvant alone. FICI ≤ 0.5, 0.5 < x ≤ 4, and >4 were deemed synergistic, additive, and antagonistic, respectively ([Meletiadis et al., 2010]).

MDR K. pneumoniae = format: cell-based, Klebsiella pneumoniae; conditions: antibiotic alone
Method: as §1

MDR E. cloacae = assay: Checkerboard assay, MDR clinical isolates; format: cell-based, Enterobacter cloacae; conditions: antibiotic alone
Method: as §1

[3] = tested on: wild-type A. baumannii ATCC 17978; assay: Time-kill assay; format: cell-based, Acinetobacter baumannii; conditions: 32 μg/mL novobiocin or 0.5 μg/mL rifampicin alone
Method: (§2) Overnight-grown bacterial culture diluted in PBS to 0.5 McFarland turbidity was successively diluted 1:50 in lysogeny broth (LB). Cell cultures in the presence of dUSTBβP 3, novobiocin, or rifampicin, or combinations of adjuvant and antibiotic were incubated at 37°C. At designated intervals, 100 μL aliquots acquired from each culture tube were serially diluted in PBS and plated on LB agar plates.

MDR A. baumannii 110193 = assay: Time-kill assay; format: cell-based, Acinetobacter baumannii; conditions: 32 μg/mL novobiocin or 0.5 μg/mL rifampicin alone
Method: as §2

[4] = tested on: MDR clinical isolates of P. aeruginosa; assay: Checkerboard assay, MDR clinical isolates; format: cell-based, Pseudomonas aeruginosa; conditions: antibiotic alone
Method: as §1

[5] = tested on: wild-type A. baumannii ATCC 17978; assay: Checkerboard assay; format: cell-based, Acinetobacter baumannii; conditions: ATCC 17978; for MICcombo: antibiotic with dUSTBβP 3 at 8 μg/mL
In short: (§3)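 Checkerboard in MHB with 5 × 10^5 CFU/mL inoculum, antibiotic and adjuvant each serially 2-fold diluted on crossed axes. Growth read as turbidity at 590 nm; FICI is the sum of each agent's MIC in combination divided by its MIC alone.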

[6] = tested on: wild-type P. aeruginosa PAO1; assay: microbe, parasite or virus in culture; format: cell-based, Pseudomonas aeruginosa; conditions: PAO1; for MICcombo: antibiotic with dUSTBβP 3 at 8 μg/mL
In short: as §3

[7] = tested on: MDR clinical isolates of A. baumannii; format: cell-based, Acinetobacter baumannii; conditions: antibiotic alone
Method: as §1

[8] = tested on: MDR K. pneumoniae clinical isolates; assay: Resistance phenotype (MICs of antibiotics) of MDR clinical isolates; format: cell-based, Klebsiella pneumoniae
[9] = tested on: MDR A. baumannii clinical isolates; assay: as above; format: cell-based, Acinetobacter baumannii
[10] = tested on: MDR E. cloacae clinical isolates; assay: as above; format: cell-based, Enterobacter cloacae
[11] = tested on: MDR P. aeruginosa clinical isolates; assay: as above; format: cell-based, Pseudomonas aeruginosa
[12] = tested on: MDR E. coli clinical isolates; assay: as above; format: cell-based, Escherichia coli
[13] = in vivo; cited from earlier work; remark: listed apart in the source
[14] = antibiotic alone (Supplementary Table 7)

Compound: CO[C@@H]1[C@@H](OC(N)=O)[C@@H](O)[C@H](Oc2ccc3c(O)c(NC(=O)c4ccc(O)c(CC=C(C)C)c4)c(=O)oc3c2C)OC1(C)C [Novobiocin]
- Steady-state serum concentration [1]: 5 µg/mL
- MICantibiotic ([2]; antibiotic alone): 64 µg/mL
- MICcombo [2]: 0.125 µg/mL
- MIC ([2]; Escherichia coli, ATCC25922, 18 h, antibiotic alone (Supplementary Table 7), read-out: MICantibiotic): 64 µg/mL
- MICantibiotic (MDR E. coli): 64 µg/mL
- MICantibiotic (MDR K. pneumoniae; 113250): 128 µg/mL
- MICantibiotic (MDR K. pneumoniae; 113254): 256 µg/mL
- MICantibiotic (MDR K. pneumoniae; 116381): 256 µg/mL
- MICantibiotic (MDR E. cloacae; 117029): 512 µg/mL
- MICantibiotic (MDR E. cloacae; 118564): 256 µg/mL
- MICantibiotic (MDR E. cloacae; 121187): 16 µg/mL
- Time-kill outcome [3]: Bacteriostatic
- Time-kill outcome (MDR A. baumannii 110193): Bacteriostatic
- MICantibiotic ([4]; PA259-96196): 1024 µg/mL
- MICantibiotic ([4]; PA259-96196, listed as novobiocin): 1,024 μg/mL
- MICantibiotic ([4]; PA262-101856): 1024 µg/mL
- MICantibiotic ([4]; PA262-101856, listed as novobiocin): 1,024 μg/mL
- MICantibiotic ([4]; PA264-104354): 1024 µg/mL
- MICantibiotic ([4]; PA264-104354, listed as novobiocin): 1,024 μg/mL
- MICantibiotic ([4]; PA91433): 1024 µg/mL
- MICantibiotic ([4]; PA91433, listed as novobiocin): 1,024 μg/mL
- MICantibiotic ([4]; PA114228): 1024 µg/mL
- MICantibiotic ([4]; PA114228, listed as novobiocin): 1,024 μg/mL
- MICantibiotic ([5]; antibiotic alone): 16 µg/mL
- MICcombo [5]: 0.25 µg/mL
- MIC ([5]; Acinetobacter baumannii, ATCC17978, 18 h, antibiotic alone (Supplementary Table 7), read-out: MICantibiotic): 16 µg/mL
- MICantibiotic ([6]; antibiotic alone): 1,024 μg/mL
- MICcombo [6]: 32 µg/mL
- MIC ([6]; Pseudomonas aeruginosa, 18 h, antibiotic alone (Supplementary Table 7), read-out: MICantibiotic): 1020 µg/mL (≈ 1670 µM)
- MICantibiotic [7]; 92247: 4 µg/mL
- MICantibiotic [7]; 110193: 128 µg/mL
- MICantibiotic ([7]; AB027): 8 µg/mL
- MICantibiotic ([7]; AB031): 4 µg/mL
- MICantibiotic ([7]; LAC-4): > 0.5 µg/mL
- MICantibiotic ([7]; LAC-4, listed as novobiocin): 1 µg/mL

Compound: Colistin
- MICantibiotic [2, 14]: 0.125
- MICcombo [2]: 0.031 µg/mL
- MIC [8]; 113250: > 16 µg/mL
- MIC [8]; 113254: > 16 µg/mL
- MIC [8]; 116381: 1 µg/mL
- MIC [9]; 92247: 4 µg/mL
- MIC [9]; 110193: 0.5 µg/mL
- MIC ([9]; AB027): 0.25 µg/mL
- MIC ([9]; AB031): 0.25 µg/mL
- MIC ([9]; LAC-4): 0.125 µg/mL
- MIC [10]; 117029: 0.25 µg/mL
- MIC [10]; 118564: > 16 µg/mL
- MIC [10]; 121187: > 16 µg/mL
- MIC ([11]; 259-96196): 1 µg/mL
- MIC ([11]; 262-101856): 1 µg/mL
- MIC ([11]; 264-104354): 1 µg/mL
- MIC [11]; 91433: 4 µg/mL
- MIC [11]; 114228: 4 µg/mL
- MICantibiotic [5, 14]: 0.5
- MICcombo [5]: 0.25 µg/mL
- MICantibiotic [6, 14]: 1
- MICcombo [6]: 1 µg/mL
- MIC ([12]; 94393 (mcr-1 +)): 4 µg/mL
- MIC ([12]; 94474 (mcr-1 +)): 16 µg/mL
- MIC [12]; 107115: 0.125 µg/mL
- In vivo elimination half-life [13]: 5 h
